Results taken from patent US20220119354A1, “DIAMINO-SUBSTITUTED PYRIDINES AND PYRIMIDINES AS HERBICIDES” (FMC Corporation, priority 2019, published 2022).

Assays:
Type in all cases: in vivo
[1] = system: barnyardgrass (Echinochloa crus-galli); experiment: Test A postemergence, barnyardgrass; details: 0 to 100 scale, 0 no effect, 100 complete control
From the text: (§1) Seeds of plant species selected from barnyardgrass (Echinochloa crus-galli), kochia (Kochia scoparia), ragweed (common ragweed, Ambrosia elatior), ryegrass, Italian (Lolium multiflorum), foxtail, giant (Setaria faberii), foxtail, green (Setaria viridis), and pigweed (Amaranthus retroflexus) were planted into a blend of loam soil and sand and treated preemergence with a directed soil spray using test chemicals formulated in a non-phytotoxic solvent mixture which included a surfactant.
(§2) At the same time, plants selected from these weed species and also wheat (Triticum aestivum), corn (Zea mays), blackgrass (Alopecurus myosuroides), and galium (catchweed bedstraw, Galium aparine) were planted in pots containing the same blend of loam soil and sand and treated with postemergence applications of test chemicals formulated in the same manner. Plants ranged in height from 2 to 10 cm and were in the one- to two-leaf stage for the postemergence treatment. Treated plants and untreated controls were maintained in a greenhouse for approximately 10 d, after which time all treated plants were compared to untreated controls and visually evaluated for injury. Plant response ratings, summarized in Table A, are based on a 0 to 100 scale where 0 is no effect and 100 is complete control. A dash (-) response means no test result.

[2] = system: pigweed (Amaranthus retroflexus); experiment: Test A postemergence, pigweed; details: 0 to 100 scale, 0 no effect, 100 complete control
From the text: as §1, §2

[3] = system: blackgrass (Alopecurus myosuroides); experiment: Test A postemergence, blackgrass; details: 0 to 100 scale, 0 no effect, 100 complete control
From the text: as §1, §2

[4] = system: wheat (Triticum aestivum); experiment: Test A postemergence, wheat; details: 0 to 100 scale, 0 no effect, 100 complete control
From the text: as §1, §2

[5] = system: foxtail, giant (Setaria faberii); experiment: Test A preemergence, giant foxtail; details: 0 to 100 scale, 0 is no effect, 100 is complete control
From the text: as §1, §2

[6] = system: ryegrass, Italian (Lolium multiflorum); experiment: Test A postemergence, Italian ryegrass; details: 0 to 100 scale, 0 no effect, 100 complete control
From the text: as §1, §2

[7] = system: barnyardgrass (Echinochloa crus-galli); experiment: Test A preemergence, barnyardgrass; details: 0 to 100 scale, 0 is no effect, 100 is complete control
From the text: as §1, §2

kochia (Kochia scoparia) [8] = experiment: Test A postemergence, kochia; details: 0 to 100 scale, 0 no effect, 100 complete control
From the text: as §1, §2

[9] = system: foxtail, giant (Setaria faberii); experiment: Test A postemergence, giant foxtail; details: 0 to 100 scale, 0 no effect, 100 complete control
From the text: as §1, §2

kochia (Kochia scoparia) [10] = experiment: Test A preemergence, kochia; details: 0 to 100 scale, 0 is no effect, 100 is complete control
From the text: as §1, §2

[11] = system: ryegrass, Italian (Lolium multiflorum); experiment: Test A preemergence, Italian ryegrass; details: 0 to 100 scale, 0 is no effect, 100 is complete control
From the text: as §1, §2

corn (Zea mays) = experiment: Test A postemergence, corn; details: 0 to 100 scale, 0 no effect, 100 complete control
From the text: as §1, §2

[12] = system: ragweed (common ragweed, Ambrosia elatior); experiment: Test A postemergence, ragweed; details: 0 to 100 scale, 0 no effect, 100 complete control
From the text: as §1, §2

[13] = system: pigweed (Amaranthus retroflexus); experiment: Test A preemergence, pigweed; details: 0 to 100 scale, 0 is no effect, 100 is complete control
From the text: as §1, §2

[14] = system: ragweed (common ragweed, Ambrosia elatior); experiment: Test A preemergence, ragweed; details: 0 to 100 scale, 0 is no effect, 100 is complete control
From the text: as §1, §2

[15] = system: galium (catchweed bedstraw, Galium aparine); experiment: Test A postemergence, galium; details: 0 to 100 scale, 0 no effect, 100 complete control
From the text: as §1, §2

Compound	Plant response rating, Barnyardgrass ([1]; 125 g ai/ha)	Plant response rating, Barnyardgrass ([1]; 500 g ai/ha)	Plant response rating, Pigweed ([2]; 125 g ai/ha)	Plant response rating, Pigweed ([2]; 500 g ai/ha)	Plant response rating, Blackgrass ([3]; 125 g ai/ha)	Plant response rating, Blackgrass ([3]; 500 g ai/ha)	Plant response rating, Wheat ([4]; 125 g ai/ha)	Plant response rating, Wheat ([4]; 500 g ai/ha)	Foxtail, Giant plant response rating ([5]; 125 g ai/ha)	Foxtail, Giant plant response rating ([5]; 500 g ai/ha)	Plant response rating, Ryegrass, Italian ([6]; 125 g ai/ha)	Plant response rating, Ryegrass, Italian ([6]; 500 g ai/ha)	Barnyardgrass plant response rating ([7]; 125 g ai/ha)	Barnyardgrass plant response rating ([7]; 500 g ai/ha)	Plant response rating, Kochia (kochia (Kochia scoparia) [8]; 125 g ai/ha)	Plant response rating, Kochia (kochia (Kochia scoparia) [8]; 500 g ai/ha)	Plant response rating, Foxtail, Giant ([9]; 125 g ai/ha)	Plant response rating, Foxtail, Giant ([9]; 500 g ai/ha)	Kochia plant response rating (kochia (Kochia scoparia) [10]; 125 g ai/ha)	Kochia plant response rating (kochia (Kochia scoparia) [10]; 500 g ai/ha)	further results
Cc1cccc2oc(C(C)Nc3ncc(C(F)(F)F)c(N)n3)cc12 (stereo not shown) [Compound 101]	30	100	100	100	20	70	0	40	100	100	60	70	90	90	70	100	10	100	90	90	Ryegrass, Italian plant response rating ([11]; 125 g ai/ha): 30; Ryegrass, Italian plant response rating ([11]; 500 g ai/ha): 90; Plant response rating, Corn (corn (Zea mays); 125 g ai/ha): 0; Plant response rating, Corn (corn (Zea mays); 500 g ai/ha): 40; Plant response rating, Ragweed ([12]; 125 g ai/ha): 30; Plant response rating, Ragweed ([12]; 500 g ai/ha): 100; Pigweed plant response rating ([13]; 125 g ai/ha): 70; Pigweed plant response rating ([13]; 500 g ai/ha): 100; Ragweed plant response rating ([14]; 125 g ai/ha): 70; Ragweed plant response rating ([14]; 500 g ai/ha): 100; Plant response rating, Galium ([15]; 125 g ai/ha): 80; Plant response rating, Galium ([15]; 500 g ai/ha): 90
CC(Nc1ncc(C(F)(F)F)c(N)n1)c1cc2c(Br)cccc2o1 (stereo not shown) [Compound 102]	10	70	100	100	0	40	0	40	80	100	0	30	30	80	70	90	0	20	70	90	Ryegrass, Italian plant response rating ([11]; 125 g ai/ha): 30; Ryegrass, Italian plant response rating ([11]; 500 g ai/ha): 60; Plant response rating, Corn (corn (Zea mays); 125 g ai/ha): 0; Plant response rating, Corn (corn (Zea mays); 500 g ai/ha): 20; Plant response rating, Ragweed ([12]; 125 g ai/ha): 30; Plant response rating, Ragweed ([12]; 500 g ai/ha): 100; Pigweed plant response rating ([13]; 125 g ai/ha): 100; Pigweed plant response rating ([13]; 500 g ai/ha): 100; Ragweed plant response rating ([14]; 125 g ai/ha): 50; Ragweed plant response rating ([14]; 500 g ai/ha): 80; Plant response rating, Galium ([15]; 125 g ai/ha): 100; Plant response rating, Galium ([15]; 500 g ai/ha): 100
